Reference: ChEMBL document CHEMBL4184283, “High expression of class III β-tubulin has no impact on functional cancer cell growth inhibition of a series of key vinblastine analogs” (Bioorg Med Chem Lett, 2018)
pIC50: −log10 of the molar value.

Key:
[1] = Selectivity ratio of IC50 for human A549-T24 cells over-expressing class-3 beta-tubulin to IC50 for human A549 cells; assay type: functional
[2] = Growth inhibition of human A549-T24 cells over-expressing class-3 beta-tubulin; assay type: functional
[3] = system: A549; assay: Growth inhibition of human A549 cells; assay type: functional, cell-based
[4] = Selectivity ratio of IC50 for human HCT116/VM46 cells over-expressing P-gp to IC50 for human HCT116 cells; assay type: functional
[5] = system: L1210; assay: Growth inhibition of mouse L1210 cells after 72 hrs by phosphatase assay; assay type: functional, cell-based; conditions: L1210, 72 h
[6] = system: HCT-116; assay: Growth inhibition of human HCT116 cells after 72 hrs by phosphatase assay; assay type: functional, cell-based; conditions: HCT-116, 72 h
[7] = system: HCT-116/VM46; assay: Growth inhibition of human HCT116/VM46 cells over-expressing P-gp after 72 hrs by phosphatase assay; assay type: functional, cell-based; conditions: HCT-116/VM46, 72 h

## CC[C@]1(O)C[C@H]2CN(CCc3c([nH]c4ccc(F)cc34)[C@@](C(=O)OC)(c3cc4c(cc3OC)N(C)[C@H]3[C@@](O)(C(=O)OC)[C@H](OC(C)=O)[C@]5(CC)C=CCN6CC[C@]43[C@@H]65)C2)C1
[1]
  Ratio IC50: <1
[2]
  pIC50: 9.10
[3]
  pIC50: 8.54
[4]
  Ratio IC50: 100

## CC[C@]1(NC(=O)c2ccc3c(c2)CCCC3)C[C@H]2CN(CCc3c([nH]c4ccc(F)cc34)[C@@](C(=O)OC)(c3cc4c(cc3OC)N(C)[C@H]3[C@@](O)(C(=O)OC)[C@H](OC(C)=O)[C@]5(CC)C=CCN6CC[C@]43[C@@H]65)C2)C1
[1]
  Ratio IC50: <1
[2]
  pIC50: 8.19
[5]
  pIC50: 8.52
[6]
  pIC50: 8.31
[3]
  pIC50: 8.12
[4]
  Ratio IC50: 1.8
[7]
  pIC50: 8.06

## CC[C@]1(NC(=O)c2ccc3c(c2)CCCO3)C[C@H]2CN(CCc3c([nH]c4ccc(F)cc34)[C@@](C(=O)OC)(c3cc4c(cc3OC)N(C)[C@H]3[C@@](O)(C(=O)OC)[C@H](OC(C)=O)[C@]5(CC)C=CCN6CC[C@]43[C@@H]65)C2)C1
[1]
  Ratio IC50: <1
[2]
  pIC50: 9.10
[5]
  pIC50: 9.40
[6]
  pIC50: 9.30
[3]
  pIC50: 8.85
[4]
  Ratio IC50: 3.8
[7]
  pIC50: 8.74

## CC[C@]1(NC(=O)N2Cc3ccc(NC(=O)c4cccnn4)cc3C2)C[C@H]2CN(CCc3c([nH]c4ccc(F)cc34)[C@@](C(=O)OC)(c3cc4c(cc3OC)N(C)[C@H]3[C@@](O)(C(=O)OC)[C@H](OC(C)=O)[C@]5(CC)C=CCN6CC[C@]43[C@@H]65)C2)C1
[1]
  Ratio IC50: <1
[2]
  pIC50: 9.59
[5]
  pIC50: 10.22
[6]
  pIC50: 10.15
[3]
  pIC50: 9.28
[4]
  Ratio IC50: 12
[7]
  pIC50: 9.06

## CC[C@]1(NC(=O)N2Cc3ccccc3C2)C[C@H]2CN(CCc3c([nH]c4ccc(F)cc34)[C@@](C(=O)OC)(c3cc4c(cc3OC)N(C)[C@H]3[C@@](O)(C(=O)OC)[C@H](OC(C)=O)[C@]5(CC)C=CCN6CC[C@]43[C@@H]65)C2)C1
[1]
  Ratio IC50: 1
[2]
  pIC50: 9.15
[5]
  pIC50: 9.30
[6]
  pIC50: 9.22
[3]
  pIC50: 9.15
[4]
  Ratio IC50: 12
[7]
  pIC50: 8.12

## CC[C@]1(NC(=O)N2Cc3ccc(NC(=O)c4cnccn4)cc3C2)C[C@H]2CN(CCc3c([nH]c4ccc(F)cc34)[C@@](C(=O)OC)(c3cc4c(cc3OC)N(C)[C@H]3[C@@](O)(C(=O)OC)[C@H](OC(C)=O)[C@]5(CC)C=CCN6CC[C@]43[C@@H]65)C2)C1
[1]
  Ratio IC50: <1
[2]
  pIC50: 10.05
[5]
  pIC50: 10.22
[6]
  pIC50: 10.15
[3]
  pIC50: 9.72
[4]
  Ratio IC50: 12
[7]
  pIC50: 9.08

## CC[C@]1(NC(=O)N2Cc3ccc(NC(=O)c4ccncn4)cc3C2)C[C@H]2CN(CCc3c([nH]c4ccc(F)cc34)[C@@](C(=O)OC)(c3cc4c(cc3OC)N(C)[C@H]3[C@@](O)(C(=O)OC)[C@H](OC(C)=O)[C@]5(CC)C=CCN6CC[C@]43[C@@H]65)C2)C1
[1]
  Ratio IC50: <1
[2]
  pIC50: 9.89
[5]
  pIC50: 10.22
[6]
  pIC50: 10.15
[3]
  pIC50: 9.77
[4]
  Ratio IC50: 13
[7]
  pIC50: 9.06

## CC[C@]1(NC(=O)c2ccc(C)c(C)c2)C[C@H]2CN(CCc3c([nH]c4ccc(F)cc34)[C@@](C(=O)OC)(c3cc4c(cc3OC)N(C)[C@H]3[C@@](O)(C(=O)OC)[C@H](OC(C)=O)[C@]5(CC)C=CCN6CC[C@]43[C@@H]65)C2)C1
[1]
  Ratio IC50: <1
[2]
  pIC50: 8.60
[5]
  pIC50: 8.52
[6]
  pIC50: 8.35
[3]
  pIC50: 8.30
[4]
  Ratio IC50: 1.7
[7]
  pIC50: 8.12

## CC(=O)O[C@H]1C(=O)[C@@]2(C)[C@H]([C@H](OC(=O)c3ccccc3)[C@]3(O)C[C@H](OC(=O)[C@H](O)[C@@H](NC(=O)c4ccccc4)c4ccccc4)C(C)=C1C3(C)C)[C@]1(OC(C)=O)CO[C@@H]1C[C@@H]2O [PACLITAXEL]
[1]
  Ratio IC50: 10
[2]
  pIC50: 7.15
[3]
  pIC50: 8.15
[4]
  Ratio IC50: >50
[7]
  pIC50: < 6.70

## CC[C@]1(O)C[C@@H]2CN(CCc3c([nH]c4ccccc34)[C@@](C(=O)OC)(c3cc4c(cc3OC)N(C)[C@H]3[C@@](O)(C(=O)OC)[C@H](OC(C)=O)[C@]5(CC)C=CCN6CC[C@]43[C@@H]65)C2)C1 [VINBLASTINE]
[1]
  Ratio IC50: <1
[2]
  pIC50: 8.17
[3]
  pIC50: 8.11
